Results on 29 compounds are retold here after ChEMBL document CHEMBL3877300, “Design, synthesis, docking studies and biological evaluation of novel dihydro-1,3,5-triazines as human DHFR inhibitors” (Eur J Med Chem, 2017).

SMILES strings stand for the structures. A value given as a limit tells only on which side of the number the result lay.

Test [1] can be described thus: Antiproliferative activity against human HepG2 cells after 72 hrs by MTT assay. Particulars: HepG2, 72 h. It is filed as functional, cell-based.
Another test concerns the target T1, Dihydrofolate reductase (Homo sapiens, UniProt P00374).
T1 sequence (P00374 whole entry): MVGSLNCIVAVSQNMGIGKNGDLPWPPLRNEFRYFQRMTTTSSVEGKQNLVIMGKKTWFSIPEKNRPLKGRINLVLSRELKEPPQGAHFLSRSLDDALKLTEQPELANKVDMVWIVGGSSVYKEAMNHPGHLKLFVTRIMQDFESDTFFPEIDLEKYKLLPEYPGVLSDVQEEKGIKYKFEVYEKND
In words: Inhibition of recombinant human DHFR using DHF as substrate measured every 5 sec over 6 mins in presence of NADPH by UV-Visible spectrophotometric method relative to control.

Test [2] in a line: Antiproliferative activity against human HL60 cells after 72 hrs by MTT assay. The note with it: HL-60, 72 h. It is filed as functional, cell-based.
Test [3] in a line: cells. The note with it: Homo sapiens, HCT-116, 72 h.
Description: Antiproliferative activity against human HCT116 cells after 72 hrs by MTT assay
A short description of test [4]: cells. Particulars: Homo sapiens, A549, 72 h.
Description: Antiproliferative activity against human A549 cells after 72 hrs by MTT assay
Test [5] is described as follows: Antiproliferative activity against human MDA-MB-231 cells after 72 hrs by MTT assay. Particulars: MDA-MB-231, 72 h. It is filed as functional, cell-based.

Regarding `NC1=NC2(CCCCC2)N(OCCCOc2ccc(Cl)cc2)C(N)=N1`, the IC50 amounted to 2330 nM in test [1]; 49 nM on Dihydrofolate reductase; 580 nM in test [2]; 380 nM in the test “cells [3]”; 990 nM in “cells [4]”; 1210 nM in test [5] (read-out: IC50).
With `NC1=NC2(CCSCC2)N(OCCCOc2ccc(Cl)c(Cl)c2)C(N)=N1`, the IC50 in test [1] amounted to 70 nM; in test [2], 140 nM; in “cells [3]”, 1 nM; in the test “cells [4]”, 1 nM; in test [5] (read-out: IC50), 10 nM.
Turning to `NC1=NC2(CCOCC2)N(OCCCOc2ccc(Br)cc2)C(N)=N1`, the IC50 at Dihydrofolate reductase was 32.5 nM; in test [2] it was 310 nM; in the test “cells [3]”, 320 nM; in “cells [4]”, 280 nM.
In the same order, the values of `NC1=NC2(CCOCC2)N(OCCCOc2cc(Cl)c(Cl)cc2Cl)C(N)=N1` are 36 nM, 2360 nM, 2750 nM and 680 nM.
As to `NC1=NC2(CCSCC2)N(OCCCOc2ccccc2Br)C(N)=N1`, the IC50 in test [1] stood at 90 nM; in test [2], 180 nM; in the test “cells [3]”, 1 nM; in “cells [4]”, 40 nM; in test [5] (read-out: IC50), 10 nM.
Consider `NC1=NC2(CCOCC2)N(OCCCOc2ccc(Cl)cc2)C(N)=N1`, for which the IC50 on Dihydrofolate reductase came out at 33.6 nM; in test [2] it was 330 nM; in the test “cells [3]” it was 690 nM; in the test “cells [4]”, 360 nM.
As to `NC1=NC2(CCSCC2)N(OCCCOc2ccccc2Cl)C(N)=N1`, the IC50 came out at 80 nM in test [1]; 390 nM in test [2]; 1 nM in the test “cells [3]”; 80 nM in “cells [4]”; 80 nM in test [5] (read-out: IC50).
As for `COc1ccc(OCCCON2C(N)=NC(N)=NC23CCOCC3)cc1`, the IC50 on Dihydrofolate reductase was 11.1 nM; in test [2] it was 1670 nM; in the test “cells [3]”, 1500 nM; in “cells [4]”, 660 nM.
Take `COc1ccc(OCCCON2C(N)=NC(N)=NC23CCSCC3)cc1`: the IC50 is 880 nM in test [1]; 500 nM in test [2]; 70 nM in “cells [3]”; 240 nM in “cells [4]”; 350 nM in test [5] (read-out: IC50).
For the compound `NC1=NC2(CCSCC2)N(OCCCOc2cc(Cl)c(Cl)cc2Cl)C(N)=N1`, the IC50 in test [1] is greater than 100000 nM; in test [2] it was 730 nM; in the test “cells [3]” it was 1 nM; in the test “cells [4]”, greater than 100000 nM; in test [5] (read-out: IC50), 110 nM.
As to `NC1=NC2(CCOCC2)N(OCCCOc2cccc(Cl)c2Cl)C(N)=N1`, the IC50 in test [1] came out at 330 nM; in test [2], 440 nM; in the test “cells [3]”, 5 nM; in the test “cells [4]” it was 100 nM; in test [5] (read-out: IC50), 140 nM.
For the compound `NC1=NC2(CCSCC2)N(OCCCOc2cccc(Cl)c2Cl)C(N)=N1`, the concentration for half-maximal inhibition (IC50) turned out to be 50 nM in test [1]; 30 nM in test [2]; 1 nM in “cells [3]”; 1 nM in “cells [4]”; 1 nM in test [5] (read-out: IC50).
In the case of `NC1=NC2(CCOCC2)N(OCCCOc2ccccc2)C(N)=N1`, the IC50 worked out at 86.1 nM on Dihydrofolate reductase, 2460 nM in test [2], 6010 nM in the test “cells [3]” and 1080 nM in the test “cells [4]”.
As to `Cc1cc(C)cc(OCCCON2C(N)=NC(N)=NC23CCOCC3)c1`, the IC50 was found to be 680 nM in test [1]; 720 nM in test [2]; 190 nM in “cells [3]”; 710 nM in “cells [4]”; 3570 nM in test [5] (read-out: IC50).
In the same order, the values of `NC1=NC2(CCOCC2)N(OCCCOc2cccc(Br)c2)C(N)=N1` are 320 nM, 560 nM, 40 nM, 160 nM and 400 nM.
Turning to `NC1=NC2(CCOCC2)N(OCCCOc2cccc(Cl)c2)C(N)=N1`, the IC50 in test [1] came to 150 nM; in test [2] it was 520 nM; in “cells [3]”, 120 nM; in “cells [4]” it was 150 nM; in test [5] (read-out: IC50) it was 1020 nM.
On to `NC1=NC2(CCSCC2)N(OCCCOc2ccc(Cl)cc2Cl)C(N)=N1`, for which the IC50 in test [1] worked out at 1380 nM; on Dihydrofolate reductase it was 4.08 nM; in test [2], 330 nM; in the test “cells [3]” it was 1 nM; in the test “cells [4]”, 210 nM; in test [5] (read-out: IC50), 60 nM.
Take `NC1=NC2(CCSCC2)N(OCCCOc2ccc(Cl)cc2)C(N)=N1`: the half-inhibitory concentration (IC50) in test [1] worked out at 1100 nM; at Dihydrofolate reductase it was 18.3 nM; in test [2] it was 430 nM; in “cells [3]”, 10 nM; in the test “cells [4]”, 580 nM; in test [5] (read-out: IC50), 350 nM.
In the case of `NC1=NC2(CCSCC2)N(OCCCOc2ccc(Br)cc2)C(N)=N1`, the IC50 in test [1] turned out to be 1400 nM; at Dihydrofolate reductase, 6.46 nM; in test [2] it was 350 nM; in “cells [3]”, 20 nM; in “cells [4]”, 740 nM; in test [5] (read-out: IC50), 440 nM.
Take `NC1=NC2(CCOCC2)N(OCCCOc2ccc(F)cc2)C(N)=N1`: the IC50 at Dihydrofolate reductase was 46.6 nM; in test [2], 2380 nM; in the test “cells [3]”, 3280 nM; in the test “cells [4]”, 1060 nM.
Consider `NC1=NC2(CCOCC2)N(OCCCOc2ccccc2Br)C(N)=N1`, for which the IC50 stood at 860 nM in test [1]; 610 nM in test [2]; 30 nM in “cells [3]”; 160 nM in “cells [4]”; 910 nM in test [5] (read-out: IC50).
For `NC1=NC2(CCOCC2)N(OCCCOc2ccc(Cl)c(Cl)c2)C(N)=N1`, the IC50 in test [1] is 380 nM; on Dihydrofolate reductase, 8.23 nM; in test [2], 1240 nM; in “cells [3]”, 90 nM; in the test “cells [4]”, 790 nM; in test [5] (read-out: IC50), 590 nM.
Take `Cc1ccc(OCCCON2C(N)=NC(N)=NC23CCOCC3)cc1`: the IC50 on Dihydrofolate reductase amounted to 56.7 nM; in test [2], 2580 nM; in “cells [3]” it was 2390 nM; in the test “cells [4]” it was 1060 nM.
`NC1=NC2(CCOCC2)N(OCCCOc2ccccc2Cl)C(N)=N1`: the IC50 in test [1] was 1750 nM; in test [2], 660 nM; in “cells [3]”, 70 nM; in “cells [4]”, 2700 nM; in test [5] (read-out: IC50) it was 1430 nM.
In the same order, the values of `NC1=NC2(CCSCC2)N(OCCCOc2cccc(Cl)c2)C(N)=N1` are 90 nM, 260 nM, 1 nM, 60 nM and 130 nM.
Consider `CC(C)(C)c1ccc(OCCCON2C(N)=NC(N)=NC23CCOCC3)cc1`, for which the IC50 on Dihydrofolate reductase amounted to 3.72 nM; in test [2], 870 nM; in the test “cells [3]”, 1610 nM; in the test “cells [4]”, 500 nM.
Turning to `NC1=NC2(CCSCC2)N(OCCCOc2cccc(Br)c2)C(N)=N1`, the IC50 in test [1] came to 90 nM; in test [2], 200 nM; in the test “cells [3]”, 1 nM; in the test “cells [4]”, 50 nM; in test [5] (read-out: IC50), 60 nM.
In the same order, the values of `CC(C)(C)c1ccc(OCCCON2C(N)=NC(N)=NC23CCSCC3)cc1` are 70 nM, 280 nM, 1 nM, 1 nM and 1 nM.
Take `COc1cccc2c1C(=O)c1c(O)c3c(c(O)c1C2=O)C[C@@](O)(C(=O)CO)C[C@@H]3O[C@H]1C[C@H](N)[C@H](O)[C@H](C)O1` [DOXORUBICIN]: the IC50 turned out to be 310 nM in “cells [3]”, 120 nM in the test “cells [4]” and 720 nM in test [5].
